Experiments:
PANC-1 cells [1] = test: Surface K-Ras availability after drug treatment (antibody 1 staining, MFI fold change); format: cell-based, human
Method: For 5-FU treatment, 100,000 PANC-1 cells were seeded into 24 well replicate plates. Cells were allowed to grow for 24 hours before 10 uM of 5-FU was added to the culture media. At 0-, 72-, and 120-hours cells were dislodged by using TryPLE express and resuspended in buffer containing PBS pH 7.2, 5% FCS. Cells were stained with human K-Ras antibody 1. All staining was performed at 10 μg/ml of antibody concentration and a volume of 100ul for 30 minutes on ice in V-bottom 96 well plates. Surface K-Ras staining was quantitated by measuring the MFI of cells mock treated or treated with 5-FU. The fold change was calculated by normalizing to the cells stained with isotype control.

[2] = test system: Panc-1 (pancreatic carcinoma carrying a K-RAS G12D mutation); test: Fab-ZAP assay (saporin-linked secondary antibody, XTT); format: cell-based, human; conditions: 4.5 nM FabZAP, 5 days
Description: (§1) Saporin is a 30 kDa ribosome-inhibitor which is unable to cross a cell membrane unaided (except at extremely high concentrations). However, when it is conjugated to an internalizing antibody, as previously described (DOI: 10.3390/toxins14030184), it can be used to kill target cells precisely and specifically with little to no off-target toxicity (See, for example, Lund et. al., mAbs, 6(4), 1038-1050, doi.org/10.4161/mabs.28207). […]
(§2) We specifically utilized Panc-1 (pancreatic carcinoma carrying a K-RAS G12D mutation), Capan-2 (pancreatic carcinoma carrying a K-RAS G12V mutation), AsPC-1 (pancreatic cell line carrying a K-RAS G12D mutation), LS180 (colon cancer cell line carrying a K-RAS G12D mutation), SW480 (colon cancer cell lines carrying a K-RAS G12V mutation), Capan-2 (pancreatic cancer cell line carrying a K-RAS G12V mutation), and two lung cancer cell lines (SK-LU-1 carrying a K-RAS G12D mutation and NCI-H2444 carrying a K-RAS G12V mutation). […] After 5 days incubation at 37 C in a 5% CO2 incubator, the percentage of viable cells compared to control wells with 4.5 nM FabZAP alone was determined using XTT assay according to the described protocol (Advanced Targeting Systems Inc cytotoxic assay protocol). […] Plates were then incubated at 37° C. for a minimum of 30 mins and absorbance was read at 450 nm in a plate reader. […]

[3] = test system: AsPC-1 (pancreatic cell line carrying a K-RAS G12D mutation); test: as above; format: cell-based; conditions: 4.5 nM FabZAP, 5 days
Description: as §1, §2

[4] = test system: MiaPaCa-2, a K-Ras G12C expressing pancreatic cancer cell line; test: as above; format: cell-based; conditions: 4.5 nM FabZAP, 5 days
BXPC3 K-Ras^WT = test: as above; format: cell-based; conditions: 4.5 nM FabZAP, 5 days
tumor cell = test: Tumor cell killing by saporin alone without targeting antibodies (FIG. 3); format: cell-based
Method: FIG. 3 is a graphical representation of tumor cell killing, defined as % of cells alive compared to untreated control cultures with various concentrations of saporin alone without targeting antibodies. Representative of 3 replicates per group. Arrow points to 4.5 nM saporin. This 4.5 nM concentration, conjugated to the secondary antibody, is utilized in the antibody-drug conjugate (ADC) assays described in Example 3.
as §2

[5] = test system: Panc-1 (K-Ras G12D mutant); test: Growth and viability of pancreatic cancer cells cultured with R11.1.6 constructs (cell count, Trypan blue); format: cell-based, human; conditions: Panc-1, 20,000 cells/well, counted after 5 days of culture
Method: We next evaluated growth as well as viability of two pancreatic cancer cell lines driven by either G12D (Panc-1) or G12C (MiaPaca-2) mutant K-Ras in vitro. We plated 20,000 cells/well in Dulbecco's modified Eagles media (DMEM) with 10% fetal bovine serum (FBS) in a flat bottom 96 well plate and counted cells after 5 days of culture. Viability of cells were calculated based on Trypan blue dye exclusion method, where dead cells were blue due to uptake of the viability dye and live cells were not stained. Viability was measured by using Countess II FL cell viability and cell counter instrument by Invitrogen (ThermoFisher USA).
Further evaluation of growth inhibition was performed with control Sulfolobus solfataricus-derived proteins of similar molecular weight. […] We started with 200,000 cells in a 96 well V-bottom plate and used BD phosflow buffer set III (BD biosciences, catalog number 558050) to stabilize and optimize the phosphor moiety. Next, we stained the cells with anti-phospho-Akt (ser473, Clone D9E) PE conjugated (Cell Signaling Technologies, Catalog number 5315S) at a concentration of 0.125 ug/100 ul or anti-phosho-ERK1/2, PE conjugated (ThermoFisher USA catalog number 12-9109-42) at a concentration of 0.125 ug/100 ul. Cells were washed in FACS staining buffer and run in a LSR Fortessa II flow cytometer (BD Biosciences, USA). […]

PANC-1 cells [6] = test: Human Fab-ZAP assay with MRTX1133 treatment (XTT); format: cell-based; conditions: 10 nM MRTX1133, 4.5 nM FabZAP, 5 days
Description: In this example, we used the commercially available human Fab-ZAP assay (Advanced Targeting Systems Inc.), similar to Example 3, to test whether increasing surface K-Ras availability with MRTX1133 would potentiate killing with surface K-Ras targeted ADCs. For the experiments described below, we utilized the Fab-ZAP human kit [IT-51, KIT-51](atsbio.com/products/it51/), consisting of a chemical conjugate of goat […] monovalent antibody and the ribosome-inactivating protein, saporin. The antibodies used in this kit are affinity-purified polyclonal antibodies against both the heavy and light chain of […].
In one experiment, we tested whether increasing surface K-Ras availability with the small molecule inhibitor MRTX1133 would potentiate killing with surface K-Ras targeted ADCs. […] After 5 days incubation at 37 C in a 5% CO2 incubator, the percentage of viable cells compared to control wells with 4.5 nM FabZAP alone was determined using XTT assay according to the described protocol (Advanced Targeting Systems Inc cytotoxic assay protocol). […] Plates were then incubated at 37 C for at least 30 mins, and absorbance was read at 450 nm in a plate reader. This assay relies on detecting the number of viable cells remaining on the day of development as measured via cell metabolism of a colorimetric molecule within the developing reagents. […]

[7] = test system: human tumor cell line PANC-1; test: Cell line-derived xenograft model of pancreatic cancer, in vivo ADC experiment; parameters: species or system Balb/c nude mice; conditions: 10 mg/kg i.v. QW × 2 weeks; gemcitabine 50 mg/kg i.p. BIW × 2 weeks
Method: DXd is a protease cleavable linker attached to a derivative of exatecan that acts as topoisomerase I inhibitor. DXd targeted to cancer cells by antibodies as an ADC has been used by FDA-approved […] is a conjugation of anti-Her-2 antibody and deruxtecan. DXd was conjugated via stochastic maleimide conjugation to interchain cysteines of the antibodies. The antibodies were first reduced using 10× molar equivalents of 10 mM TCEP at 37° C. for 90 minutes with shaking. The reduced antibodies were then conjugated with 10× molar equivalents of 10 mM DXd at room temperature for 2 hours. Conjugated antibodies were evaluated for the drug to antibody ratio (DAR) by reducing 10 μg of the crude conjugate with DTT at 37° C. for 30 minutes. The final DAR for the conjugated antibodies was 8. The multimeric state of the conjugated antibodies was evaluated by size exclusion chromatography and confirmed to be monomeric. Conjugated antibodies were purified from unconjugated DXd by dialysis against PBS, pH 5.6 with a 10K molecular-weight cut-off (MWCO) membrane for 48 hours. Next, we utilized a cell line-derived xenograft model of pancreatic cancer, where the human tumor cell line PANC-1 was implanted into Balb/c nude mice. The nude mouse is a naturally mutated mouse that lacks a thymus and hair (nude). […]

O=c1[nH]cc(F)c(=O)[nH]1 [5-FU, fluorouracil]
availability of surface K-Ras (MFI fold change) (PANC-1 cells [1]; 10 uM, 0, 72 and 120 hours): increased the availability of surface K-Ras in Panc-1 cells

Saporin
cell-specific killing (% of cells alive) [2]: showed killing
cell-specific killing (% of cells alive) [3]: showed killing
cell-specific killing (% of cells alive) [4]: showed killing
cell-specific killing (% of cells alive) (BXPC3 K-Ras^WT): showed killing
toxicity of saporin without a targeting agent (tumor cell; 4.5 nM concentration used in the ADC assay): no toxicity is evident at the 4.5 nM concentration
concentration of saporin alone causing cell death (tumor cell; without targeting antibodies): ≥ 100 nM

C#Cc1c(F)ccc2cc(O)cc(-c3ncc4c(N5CC6CCC(C5)N6)nc(OC[C@@]56CCCN5C[C@H](F)C6)nc4c3F)c12 [MRTX1133]
growth and viability [5]: R11.1.6-mediated inhibition of Panc-1 growth and viability was like the G12D inhibitor MRTX1133
availability of surface K-Ras (MFI fold change) (PANC-1 cells [1]; 10 nM, 0, 72 and 120 hours): increased the availability of surface K-Ras on PANC-1 cells
cell killing (% alive) (PANC-1 cells [6]): able to kill cells

Nc1ccn([C@@H]2O[C@H](CO)[C@@H](O)C2(F)F)c(=O)n1 [gemcitabine, Gemcitabine]
body weight [7]: demonstrated distress based on weight loss
tumor growth (tumor volume) [7]: slowed tumor growth over either ADC or antibody treatment

Source: patent US20260158070A1, “COMPOSITIONS AND METHODS FOR THE TREATMENT AND DIAGNOSIS OF CANCERS ASSOCIATED WITH SURFACE K-RAS” (UNIVERSITY OF MARYLAND, BALTIMORE, priority 2023, published 2026)
